Article PMC11832467, “Novel mitochondrial-targeted alkyl chains act as fungal specific inhibitors of C. neoformans” (Frontiers in Microbiology, 2025)
Like-named read-outs stand apart in the source and are kept apart here.

Assays:
cytochrome bc1 complex = biological target: T1, cytochrome bc1 complex (Candida albicans, UniProt A0A1D8PJX3+P0C8L0); assay: cytochrome bc1 activity, dose response (assay not described); format: cell-based
T1 construct: gene COB; native multi-subunit complex III; preparation and assay not given; with Cytochrome c1, heme protein, mitochondrial
T1 sequence (P0C8L0 1-387): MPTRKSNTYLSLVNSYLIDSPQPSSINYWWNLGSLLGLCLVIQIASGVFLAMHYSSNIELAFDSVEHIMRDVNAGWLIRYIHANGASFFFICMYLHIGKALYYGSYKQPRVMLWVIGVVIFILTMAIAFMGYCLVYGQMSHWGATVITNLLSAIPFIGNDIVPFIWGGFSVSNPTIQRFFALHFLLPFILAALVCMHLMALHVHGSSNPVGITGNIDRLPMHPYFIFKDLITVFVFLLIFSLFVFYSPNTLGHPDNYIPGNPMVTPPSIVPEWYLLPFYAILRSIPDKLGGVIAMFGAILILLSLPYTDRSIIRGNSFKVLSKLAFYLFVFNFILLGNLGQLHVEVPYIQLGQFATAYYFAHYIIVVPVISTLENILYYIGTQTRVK
T1 sequence (A0A1D8PJX3 30-213): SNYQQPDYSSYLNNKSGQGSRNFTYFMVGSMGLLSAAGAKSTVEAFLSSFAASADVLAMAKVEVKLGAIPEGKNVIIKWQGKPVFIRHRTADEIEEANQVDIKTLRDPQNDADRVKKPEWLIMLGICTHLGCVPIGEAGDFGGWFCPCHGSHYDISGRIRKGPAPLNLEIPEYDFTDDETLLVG
T1 sequence (A0A1D8PHA3 43-288 partner): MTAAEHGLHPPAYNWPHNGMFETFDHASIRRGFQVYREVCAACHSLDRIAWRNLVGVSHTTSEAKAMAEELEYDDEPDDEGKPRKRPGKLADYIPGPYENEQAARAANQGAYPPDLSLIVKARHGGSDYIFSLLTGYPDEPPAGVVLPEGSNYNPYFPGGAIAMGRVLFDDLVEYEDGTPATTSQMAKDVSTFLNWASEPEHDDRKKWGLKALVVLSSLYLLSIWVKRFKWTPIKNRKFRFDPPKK
Excerpt: cytochrome bc1 activity, dose response (assay not described) on cytochrome bc1 complex

C. albicans Aox2 (rAox2) = biological target: T2, C. albicans Aox2 (rAox2) (Candida albicans, UniProt Q9UV71); assay: NADH oxidation at […] nm, E. coli membranes; format: biochemical
T2 sequence (Q9UV71 1-365): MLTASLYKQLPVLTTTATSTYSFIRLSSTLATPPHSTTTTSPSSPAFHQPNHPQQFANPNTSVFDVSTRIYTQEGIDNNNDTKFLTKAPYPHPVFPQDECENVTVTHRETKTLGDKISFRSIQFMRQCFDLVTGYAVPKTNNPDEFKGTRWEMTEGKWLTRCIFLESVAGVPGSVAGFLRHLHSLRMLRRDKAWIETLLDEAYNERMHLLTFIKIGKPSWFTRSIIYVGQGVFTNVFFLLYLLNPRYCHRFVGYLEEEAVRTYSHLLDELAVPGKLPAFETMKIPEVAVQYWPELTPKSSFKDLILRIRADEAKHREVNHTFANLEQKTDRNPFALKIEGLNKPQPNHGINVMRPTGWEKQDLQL

| SMILES | IC50 (cytochrome bc1 complex) [µM] | IC50 (C. albicans Aox2 (rAox2); NADH, 65 mM MOPS pH 7.5, 1 mM KCN, 10 mM GMP, 10 min preincubation) [µM] | IC50 (C. albicans Aox2 (rAox2)) [µM] |
| --- | --- | --- | --- |
| Cc1c(Br)c(O)c(CCCCCCCCCCCC[P+](c2ccccc2)(c2ccccc2)c2ccccc2)c(O)c1C=O [ALTOX094, (12-(3-Bromo-5-formyl-2,6-dihydroxy-4-methylphenyl)dodecyl)triphenylphosphonium bromide] | 9.1 ± 1.2 | 15 ± 1 | – |
| Cc1c(Br)c(O)c(CCCCCCCC[P+](c2ccccc2)(c2ccccc2)c2ccccc2)c(O)c1C=O [ALTOX102, (8-(3-Bromo-5-formyl-2,6-dihydroxy-4-methylphenyl)octyl)triphenylphosphonium bromide] | 5.8 ± 1.4 | – | 11.1 ± 1 |
| CC(C)=CCC/C(C)=C/Cc1c(O)c(Cl)c(C)c(C=O)c1O [Colletochlorin B] | 1.1 ± 0.1 | – | 0.0073 ± 0.0024 |
| CC(C)=CCC/C(C)=C/Cc1c(O)c(Br)c(C)c(C=O)c1O [ISSF31, (E)-3-Bromo-5-(3,7-dimethylocta-2,6-dien-1-yl)-4,6-dihydroxy-2-methylbenzaldehyde] | 1.2 ± 0.6 | – | 0.0211 ± 0.008 |
